Test in all cases: Protocol A: agar deposit test, clarification zone
Holding throughout (type): cell-based

Assay [1] relates to Enterococcus faecium. The settings on record: E. faecium; antibiotic disk. The protocol: (§1) The culture medium used was a mixture of 21 g/L of Muller-Hinton broth and 10 g/L of agar in water. This mixture was stirred and then left to boil. Next, a step of autoclaving of this mixture, for 30 minutes, was desired in this embodiment so as to sterilize it before any manipulation. This culture medium was poured hot into Petri dishes and then left to cool.
(§2) 5 mg of each modified sugar were dissolved in 1 mL of DMSO. Twofold serial dilution with DMSO was then performed using the stock solution, so as to obtain concentrations of 2.5 g/L, 1.25 g/L, 0.625 g/L and 0.3125 g/L.
(§3) The bacterial strains used were Pseudomonas aeruginosa, Escherichia Coli, Enterococcus faecium and Staphylococcus aureus, and also the fungal strain Candida albicans. 10^6 bacteria were taken and then transferred into 0.9% NaCl solution. Each Petri dish, containing Muller-Hinton medium, was flooded with a different bacterial suspension.
(§4) After allowing the bacterial suspensions to dry on the agar, 10 μL of each test solution, and at various concentrations, were deposited on the surface of the agar flooded with the bacterial suspension. 10 μL of DMSO were placed in each Petri dish as a negative control.
(§5) The positive controls used were disks soaked with ampicillin for Escherichia coli and Enterococcus faecium, ceftazidime disks for Pseudomonas aeruginosa and vancomycin disks for Staphylococcus aureus.
(§6) After drying, the Petri dishes were finally incubated at 37° C. in an oven, for 24 hours. The antibacterial activity was evaluated by measuring the clarification zone in millimeters around the point of deposition of the various test solutions.

The test system of assay [2] is Escherichia Coli. The settings on record: E. coli; for inhibitory activity on growth (in words): text summary of protocol A. The protocol:
as §1, §2, §3, §4, §5, §6

The test system of assay [3] is Pseudomonas aeruginosa. The settings on record: P. aeruginosa; for inhibitory activity on growth (in words): text summary of protocol A. The protocol: as §1, §2, §3, §4, §5, §6
The test system of assay [4] is Staphylococcus aureus. The settings on record: S. aureus. As for the experimental part: as §1, §2, §3, §4, §5, §6
The subject of assay [5] is Candida albicans. The settings on record: C. albicans; text summary of protocol A. The protocol: as §1, §2, §3
After allowing the bacterial suspensions to dry on the agar, 10 μL of each test solution, and at various concentrations, were deposited on the surface of the agar flooded with the bacterial suspension. […]
as §6

As to `CC1(C)S[C@@H]2[C@H](NC(=O)[C@H](N)c3ccccc3)C(=O)N2[C@H]1C(=O)O` [Ampicillin, reference compound], the “clarification zone, positive control” value was found to be 26 mm in assay [1] and 22 mm in assay [2] (antibiotic disk).
Consider N-(18 octadecyl)-n-butyl L-guluronamide, for which the “inhibitory activity on growth (in words)” value in assay [3] and in assay [2] was “neither the N-(12 dodecyl)-n-butyl L-guluronamide nor the N-(18 octadecyl)-n-butyl L-guluronamide (whether in furanose or pyranose form) showed any inhibitory activity” throughout. Besides, the “inhibitory effect (in words)” value in assay [4] (text summary of protocol A) and in assay [5] was “no inhibitory effect” in each case.
For `CC(C)(O/N=C(\C(=O)N[C@@H]1C(=O)N2C(C(=O)[O-])=C(C[n+]3ccccc3)CS[C@H]12)c1csc(N)n1)C(=O)O` [Ceftazidime, reference compound], the “clarification zone, positive control” value in assay [3] (antibiotic disk) is reported as 28 mm.
On to `CN[C@H](CC(C)C)C(=O)N[C@H]1C(=O)N[C@@H](CC(N)=O)C(=O)N[C@H]2C(=O)N[C@H]3C(=O)N[C@H](C(=O)N[C@H](C(=O)O)c4cc(O)cc(O)c4-c4cc3ccc4O)[C@H](O)c3ccc(c(Cl)c3)Oc3cc2cc(c3O[C@@H]2O[C@H](CO)[C@@H](O)[C@H](O)[C@H]2O[C@H]2C[C@](C)(N)[C@H](O)[C@H](C)O2)Oc2ccc(cc2Cl)[C@H]1O` [Vancomycin, reference compound], for which the “clarification zone, positive control” value in assay [4] (antibiotic disk) amounted to 19 mm.
Regarding N-(12 dodecyl)-n-butyl L-guluronamide, the “inhibitory activity on growth (in words)” value in assay [3] and in assay [2] was “neither the N-(12 dodecyl)-n-butyl L-guluronamide nor the N-(18 octadecyl)-n-butyl L-guluronamide (whether in furanose or pyranose form) showed any inhibitory activity” each time.

The values are drawn from patent US20190062362A1, “METHOD FOR OBTAINING SURFACTANT COMPOSITIONS MADE FROM ALKYL-L-GULURONAMIDES” (ÉCOLE NATIONALE SUPÉRIEURE DE CHIMIE, priority 2015, published 2019).
